Consider 20 compounds from PubChem BioAssay (NCI).

Common to all, as to assay: growth of human tumour cells (NCI), 48 h
For assay [1], the system named is SNB-78 CNS.
The subject of assay [2] is DMS 273 small cell lung.
Assay [3] deals with DMS 114 small cell lung.
Assay [4] relates to DLD-1 colon.
The test system of assay [5] is XF 498 CNS.
In assay [6] the test system is LXFL 529 NSCLC.
The subject of assay [7] is M19-MEL melanoma.
In assay [8] the test system is RXF-631 renal.
For assay [9], the system named is KM20L2 colon.

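Step 1: Grow cells in 96-well plates. Step 2: Expose to compound for 48 hours at 5 concentrations. Step 3: Interpolate endpoints linearly; if unreached, use highest concentration. At the TGI there is no net growth.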

Take `CCCCC/C=C1\CCC(CN(C)C)C1=O` (stereo not given): the TGI in [1] stood at 58.7 µM; in assay [2], 34 µM; in [3], 29 µM; in assay [4], 14.4 µM; in assay [5], 28.3 µM; in [6] it was 3.9 µM. For the same compound, the TGI was 26.6 µM in assay [7], 28.3 µM in [8] and 30.1 µM in assay [9].
`COc1cccc(C2CC23C(=O)NC(=O)NC3=O)c1` (stereo not given): the TGI in assay [1], in assay [2], in assay [3], in [5], in [6] and in assay [7] was above 100 µM each time. In assay [9], the TGI is above 100 µM.
Regarding `CCOC(=O)C1SC(=Nc2ccccc2)N=C1C` (stereo not given), the TGI in [1], in assay [3], in [4], in assay [5], in assay [6] and in assay [7] was above 100 µM throughout. In addition, the TGI in assay [8] and in assay [9] was above 100 µM in each case.
`CC(C)=CC1CC(=[N+]=[N-])C(=O)C1(C)C` (stereo not given): the TGI in [1], in [3], in assay [4], in assay [5], in [6] and in assay [7] was above 100 µM throughout. Further, in assay [9], the TGI was above 100 µM.
As to `CS(=O)(=O)c1ccc(-c2cc(-c3ccc(S(C)(=O)=O)cc3)[n+](-c3cc(-c4ccccc4)c([O-])c(-c4ccccc4)c3)c(-c3ccc(S(C)(=O)=O)cc3)c2)cc1`, the TGI in [1], in [2], in assay [3], in assay [5], in assay [6] and in [7] was above 100 µM in each case. Also, the TGI in assay [8] and in assay [9] was above 100 µM each time.
Regarding `C[N+](C)(C)CC1CCC/C1=N\OC(=O)c1ccccc1` (stereo not given), the TGI in assay [1], in assay [3], in assay [4], in assay [5], in [6] and in [7] was above 100 µM throughout. This compound displayed a TGI in [9] above 100 µM.
Regarding `COc1ccc(C(C#N)NNC(=O)Cc2ccccc2)cc1OC` (stereo not given), the TGI in [1], in assay [2], in assay [3], in assay [4], in assay [6] and in assay [7] was above 100 µM in each case.
As for `O=S(=O)(c1ccccc1)N1N=C2c3ccccc3CCC[C@H]2C1c1ccccc1` (stereo not given in full), the TGI in assay [1], in assay [2], in assay [3], in assay [4], in [5] and in [6] was above 100 µM in each case. Also, the TGI in [7] and in assay [9] was above 100 µM each time.
Turning to `O=C(CSc1c2ccccc2nc2ccccc12)Nc1ccccc1-c1ccccc1NC(=O)CSc1c2ccccc2nc2ccccc12`, the TGI was 92.2 µM in assay [1]; above 100 µM in assay [2]; 46.8 µM in [3]; 33.4 µM in assay [4]; 46.2 µM in assay [5]; 25.9 µM in assay [6]. For the same compound, the values for the TGI in [7] and in [9] were 61.1 µM and above 100 µM, respectively.
Consider `COC(=O)C(C(=O)Cc1ccccc1[N+](=O)[O-])C(=O)OC`, for which the TGI in [2], in assay [4], in assay [5], in [6], in assay [7] and in assay [8] was above 100 µM each time. Also, in assay [9], the TGI is above 100 µM.
For the compound `C=CN1C(=O)[C@H](Oc2ccccc2)[C@@H]1c1ccccc1`, the TGI in [1] is above 100 µM; in [3] it was above 100 µM; in [4], above 100 µM; in [5] it was 84 µM; in [6] it was above 100 µM; in assay [7], above 100 µM. This compound displayed a TGI in [9] above 100 µM.
`COc1ccc(/C=C(\C(C)=O)C(=O)Nc2ccccc2)cc1`: the TGI in assay [1], in [3], in assay [4], in assay [6] and in assay [7] was above 100 µM in each case.
Regarding `COC(=O)[C@@]1(C)/C(=N/NS(=O)(=O)c2ccc(C)cc2)CCC[C@@H]1C`, the TGI is above 100 µM in assay [1]; 45 µM in assay [3]; above 100 µM in assay [4]; above 100 µM in [6]; above 100 µM in [7]; above 100 µM in assay [9].
Consider `Cc1nn(C(=O)CC(=O)Nc2ccc(Cl)cc2)c(C)c1N=Nc1ccccc1C(=O)O`, for which the TGI in assay [1], in [2], in assay [3], in assay [4], in [6] and in [7] was above 100 µM in each case. The compound further displayed a TGI in [9] above 100 µM.
Take `CC1(C)CC(=O)CC(=Nc2ccc([N+](=O)[O-])cc2)C1`: the TGI was above 100 µM in assay [1]; above 100 µM in assay [2]; above 100 µM in assay [3]; 49.6 µM in assay [4]; above 100 µM in assay [5]; above 100 µM in [6]. The TGI in [7], in assay [8] and in assay [9] was above 100 µM each time.
With `C=CCC1(CN(C)C)CC/C(=C\c2ccc(Cl)cc2)C1=O` (stereo not given), the TGI is above 72 µM in assay [1]; above 59.1 µM in assay [2]; above 72.2 µM in [3]; above 94.4 µM in assay [4]; above 100 µM in assay [5]; above 74.8 µM in assay [6]. Also, the TGI was above 92.7 µM in assay [7] and above 67.4 µM in [9].
Regarding `C=C(C)C1CCC2(C)CC1c1c(c(C)cc3c1[nH]c1ccccc13)O2` (stereo not given), the TGI in [2], in assay [3], in assay [4], in assay [5], in [6] and in assay [7] was above 25 µM in each case. In [9], this compound had a TGI above 25 µM.
On to `Cc1ccc(NC(=O)CCc2nnc(N)o2)cc1`, for which the TGI in [1], in [2], in assay [3], in [4], in [5] and in [6] was above 100 µM in each case. Also, the TGI was above 100 µM in [7], above 31.6 µM in [8] and above 100 µM in [9].
Consider `CC(Oc1ccc(OCC2CCCCC2)cc1)C(=O)OCC(=O)c1ccc(-c2ccccc2)cc1` (stereo not given), for which the TGI in assay [1], in assay [2], in [3], in assay [4], in assay [5] and in assay [6] was above 100 µM in each case. In assay [7], the TGI was above 100 µM.
`COc1ccc(OC)c(/C=C(/C#N)c2ccccc2)c1`: the TGI in assay [2] is 24.5 µM; in assay [4] it was above 100 µM; in assay [6] it was above 100 µM; in [7] it was above 100 µM; in assay [9], above 100 µM.
